Measurements taken from patent US10076511B2, “Bisamide derivative of dicarboxylic acid as an agent for stimulating tissue regeneration and recovery of diminished tissue function” (TREAMID GmbH, priority 2015, dated 2018).
Several values for one entry are separate records, joined by “and”; a condition that tells them apart may be missing. Equal entries are not always repeated. Marks after values point to notes of the source that are not given here.

Test system: male rats
Test: Benign prostatic hyperplasia (BPH) model induced with Sulpiride, prostate weight and morphometry
Format: in vivo, rat
Procedure: This is manifested in a decrease in the severity of the morphological changes typical in these diseases. CAP was simulated by suturing the ventral lobe of the gland with a silk thread, and BPH was simulated by the administration of Sulpiride. The reference drug was Prostamol Uno.
Animals with BPH received Teramide intragastrically for 2 months at a dose of 0.5 mg/kg.
Experiments were performed on 40 male Wistar rats (3 months of age). To simulate chronic abacterial prostatitis, the ventral lobe of the prostate was sutured with a silk thread (under anesthesia). The model of benign prostatic hyperplasia (BPH) was simulated in rats by inducing hyperprolactinaemia, for which male rats were intraperitoneally injected with Sulpiride at a dose of 40 mg/kg every day for 2 months (Eglonil, Sanofi Winthrop Industry, France).
The ability of Treamid to normalize the structure of the prostate gland was studied in the presence of administration of Sulpiride. For this purpose, Treamid was administered intragastrically for 2 months at a dose of 0.5 mg/kg simultaneously with Sulpirid. The control animals received a solvent (2% starch mucus) in an equivalent volume. The animals of the comparison group were injected intragastrically with a solution of Prostamol Uno at a dose of 50 mg/kg. At the end of the administration course, the animals were weighed and euthanized in a CO2 chamber. Sulpiride is known to cause the development of BPH in the lateral lobe of the gland in rats [Van Coppenolle Fabien, Christian Slomianny, Francoise Carpentier Effects of hyperprolactinemia on rat prostate growth: evidence of androgeno—dependence.//Physiol. Endocrinol. Metab.—2001.—P. 120-129]. In this regard, this lobe was dissected. Its weight, weight coefficient, and volume were determined. Further, it was subjected to a morphological analysis. The lateral lobe of the prostate gland was fixed in 10% formalin and poured into paraffin, followed by preparation of sections of a thickness of 5 μm. Deparaffined sections of the gland were stained with hematoxylin and eosin. On the histological sections, the presence of proliferative centers and daughter acini were determined per standard section area. In addition, the area of the epithelial and stromal structures was measured on the standard area of a histological section. These parameters were determined by using a computer graphic analysis on the standard area of a histological section (micrographs of 10 serial visual fields performed by an AxioCam Erc5s camera mounted on an AxioLab A1 microscope (×10 lens, ×10 eyepiece), with an image transfer software of “AxioVision LE”, Carl Zeisis). The stromal-epithelial ratio was defined as a ratio of the area of stroma to the area of epithelium.
The effectiveness of the test compound was estimated by the following criteria: lower intensity of morphological symptoms of benign prostatic hyperplasia:—a decrease in the number of proliferation centers and daughter acini, and a decrease in the area of the epithelium.

[1] = Treamid 0.5 mg/kg 2 months, Prostamol Uno 50 mg/kg

Structure (SMILES): O=C(CCCC(=O)NCCc1ncc[nH]1)NCCc1ncc[nH]1 [Treamid]
- Volume of the lateral lobe of the prostate gland, cm^3 [1]: 0.62 ± 0.14# cm^3
- Weight coefficient of the lateral lobe of the prostate gland [1]: 0.69 ± 0.12 mg/g
- Weight of the lateral lobe of the prostate gland [1]: 381.67 ± 70.30 mg
- Relative area (%) of the acinar epithelium on the standard area of a section of the lateral lobe (group M ± m): 13.89 ± 2.08 %
- Relative area (%) of the stroma on the standard area of a section of the lateral lobe (group M ± m): 45.66 ± 2.30 %
- The number of daugter proliferative centers (abs.) (group M ± m): 1.60 ± 0.60 abs.
- The number of structures (abs.) consisting of 2-3 glandules tightly adjacent to each other (group M ± m): 1.60 ± 0.81 abs.
- Relative area (%) of the acinar epithelium on the standard area of a section of the lateral lobe (individual animals): 10.26% and 14.09% and 16.30% and 20.19% and 8.61%
- Relative area (%) of the stroma on the standard area of a section of the lateral lobe (individual animals): 48.61% and 45.59% and 44.14% and 38.12% and 51.82%
- The number of daugter proliferative centers (abs.) (individual animals): 3 abs. (2×) and 1 abs. (2×) and 0 abs.
- The number of structures (abs.) consisting of 2-3 glandules tightly adjacent to each other (individual animals): 1 abs. and 3 abs. and 4 abs. and 0 abs. (2×)
